Results on 1 substance are retold here after patent US20120244196A1, “PHARMACEUTICAL COMPOSITION CONTAINING MEDICAMENT-CONTAINING FINE PARTICLES AND METHOD FOR PRODUCING SAME” (NITTO DENKO CORPORATION, priority 2009, published 2012).

The test system of experiment [1] is isolated spleen cells stimulated with OVA peptide. As to the kind of experiment: mouse immunity experiment, cellular immunity level (ELISPOT). The format is in vivo, mouse (C57BL/6 lineage). Conditions: 200 μL intradermal, 62.5 μg/ml egg albumin, 3 injections at one week interval, one week after final injection, N = 2. On the procedure:
(§1) 200 μL of small particles of Example 10 (egg albumin concentration 62.5 μg/ml, pH 6.5) or egg albumin solution (egg albumin concentration 62.5 μg/ml, pH 6.5) was intradermally injected to the back of mouse (C57BL/6 lineage). Injection at one week interval was repeated twice, totaling 3 injections. One week after final injection, the humoral immunity level and cellular immunity level of the mouse were evaluated. The humoral immunity level was evaluated by measuring the amount of antibody against OVA in the serum based on the absorbance by ELISA method. The cellular immunity level was evaluated by stimulating the isolated spleen cells with OVA peptide, counting the spot number of the ELISPOT method, and measuring the secreted amount of IFN-y.

For experiment [2], the system named is antibody against OVA in the serum. Description: mouse immunity experiment, humoral immunity level (ELISA). The format is in vivo, mouse (C57BL/6 lineage). Conditions: 200 μL intradermal, 62.5 μg/ml egg albumin, 3 injections at one week interval, one week after final injection, N = 2. On the procedure:
as §1
For orientation: In an ELISA, binding on a coated surface is turned into a signal by an enzyme label.

Where “and” joins values, the source holds several entries; their conditions need not be identical. Identical values can stand only once.

With “OVA solution: egg albumin solution (egg albumin concentration 62.5 μg/ml, pH 6.5), control in mouse immunity experiment”, in experiment [1], the “cellular immunity level of spleen cell (SPOT number of ELISPOT analysis), average” value is given as 62; the “cellular immunity level of spleen cell (SPOT number of ELISPOT analysis), individual mice” value was 77 and 46. Also, in experiment [2], the “humoral immunity level of serum (absorbance at 450 nm by ELISA analysis), average” value stood at 0.32; the “humoral immunity level of serum (absorbance at 450 nm by ELISA analysis), individual mice” value was 0.23 and 0.40.
